Key:
[1] = tested on: Human immunodeficiency virus 1; assay: Antiviral activity against VSV-G pseudotyped darunavir-resistant HIV1 NL4-3 V32I, L33F,I54M and I84V mutant infected in human SUPT1 cells at 100 nM infected with supernatants from virus-infected human 293T cells after 48 hrs by luciferase assay relative to control; assay type: functional
[2] = tested on: Human immunodeficiency virus 1; assay: Antiviral activity against VSV-G pseudotyped wild type HIV1 NL4-3 infected in human TZM-b1 cells at 100 nM infected with supernatants from virus-infected human SUPT1 cells after 48 hrs by luciferase assay relative to control; assay type: functional
[3] = biological target: Human immunodeficiency virus type 1 protease (Human immunodeficiency virus 1, UniProt Q72874); assay: Inhibition of HIV-1 protease expressed in Escherichia coli using Arg-Glu(EDANS)-Ser-Gln-Asn-Tyr-Pro-Ile-Val-Gln-Lys(DABCYL)-Arg as substrate preincubated for 20 to 30 mins followed by substrate addition by FRET based assay
[4] = tested on: Human immunodeficiency virus 1; assay: Resistance index, ratio of antiviral activity against VSV-G pseudotyped wild type HIV1 NL4-3 infected in human TZM-b1 cells infected with supernatants from virus-infected human SUPT1 cells to antiviral activity against darunavir-resistant HIV1 NL4-3 infected in human SUPT1 cells infected with supernatants from virus-infected human 293T cells at 5 uM by luciferase assay; assay type: functional
[5] = tested on: Human immunodeficiency virus 1; assay: Antiviral activity against VSV-G pseudotyped darunavir-resistant HIV1 NL4-3 harboring V32I, L33F,I54M and I84V mutant infected in human SUPT1 cells at 5 uM infected with supernatants from virus-infected human 293T cells after 48 hrs by luciferase assay relative to control; assay type: functional
[6] = tested on: Human immunodeficiency virus 1; assay: Antiviral activity against VSV-G pseudotyped wild type HIV1 NL4-3 infected in human TZM-b1 cells at 5 uM infected with supernatants from virus-infected human SUPT1 cells after 48 hrs by luciferase assay relative to control; assay type: functional

Compound	IC50 [3] [nM]	also measured
CC(C)CN(C[C@@H](O)[C@H](Cc1ccccc1)NC(=O)O[C@H]1CO[C@H]2OCC[C@H]21)S(=O)(=O)c1ccc(N)cc1	–	inhibition (INH) [1]: 59%; inhibition (INH) [2]: 95%
C[C@@H](O)CN(C[C@@H](O)[C@H](Cc1ccccc1)NC(=O)c1ccc(O)cc1O)S(=O)(=O)c1ccc(C(F)(F)F)cc1	12.3	–
COc1ccc(C(=O)N[C@@H](Cc2ccccc2)[C@H](O)CN(C[C@H](C)O)S(=O)(=O)c2ccc([N+](=O)[O-])cc2)c(O)c1	505	–
C[C@H](O)CN(C[C@@H](O)[C@H](Cc1ccccc1)NC(=O)c1cc(O)cc(O)c1)S(=O)(=O)c1ccc([N+](=O)[O-])cc1	37.4	–
COc1ccc(C(=O)N[C@@H](Cc2ccccc2)[C@H](O)CN(C[C@@H](C)O)S(=O)(=O)c2ccc([N+](=O)[O-])cc2)c(O)c1	625	–
C[C@@H](O)CN(C[C@@H](O)[C@H](Cc1ccccc1)NC(=O)c1ccc(O)c(O)c1)S(=O)(=O)c1ccc(C(F)(F)F)cc1	1.64	Selectivity Index [4]: 1.43; inhibition (INH) [5]: 46%; inhibition (INH) [6]: 66%
C[C@@H](O)CN(C[C@@H](O)[C@H](Cc1ccccc1)NC(=O)c1cc(O)cc(O)c1)S(=O)(=O)c1ccc(C(F)(F)F)cc1	2.33	Selectivity Index [4]: 1.49; inhibition (INH) [5]: 51%; inhibition (INH) [6]: 76%
C[C@H](O)CN(C[C@@H](O)[C@H](Cc1ccccc1)NC(=O)c1ccc(O)cc1O)S(=O)(=O)c1ccc(C(F)(F)F)cc1	40.6	–
C[C@H](O)CN(C[C@@H](O)[C@H](Cc1ccccc1)NC(=O)c1ccc(O)cc1O)S(=O)(=O)c1ccc([N+](=O)[O-])cc1	47.1	–
C[C@@H](O)CN(C[C@@H](O)[C@H](Cc1ccccc1)NC(=O)c1ccccc1O)S(=O)(=O)c1ccc(C(F)(F)F)cc1	32.1	–
COc1cc(O)c(C(=O)N[C@@H](Cc2ccccc2)[C@H](O)CN(C[C@H](C)O)S(=O)(=O)c2ccc([N+](=O)[O-])cc2)cc1OC	1310	–
C[C@@H](O)CN(C[C@@H](O)[C@H](Cc1ccccc1)NC(=O)c1ccc(O)cc1O)S(=O)(=O)c1ccc([N+](=O)[O-])cc1	13.4	–
C[C@H](O)CN(C[C@@H](O)[C@H](Cc1ccccc1)NC(=O)c1cc(O)cc(O)c1)S(=O)(=O)c1ccc(C(F)(F)F)cc1	27.2	–
C[C@H](O)CN(C[C@@H](O)[C@H](Cc1ccccc1)NC(=O)c1ccccc1O)S(=O)(=O)c1ccc([N+](=O)[O-])cc1	78.2	–
C[C@H](O)CN(C[C@@H](O)[C@H](Cc1ccccc1)NC(=O)c1ccccc1O)S(=O)(=O)c1ccc(C(F)(F)F)cc1	257	–
C[C@@H](O)CN(C[C@@H](O)[C@H](Cc1ccccc1)NC(=O)c1cc(O)cc(O)c1)S(=O)(=O)c1ccc([N+](=O)[O-])cc1	4.83	Selectivity Index [4]: 1.38; inhibition (INH) [5]: 42%; inhibition (INH) [6]: 58%
COc1cc(O)c(C(=O)N[C@@H](Cc2ccccc2)[C@H](O)CN(C[C@@H](C)O)S(=O)(=O)c2ccc([N+](=O)[O-])cc2)cc1OC	102	–
COc1cc(C(=O)N[C@@H](Cc2ccccc2)[C@H](O)CN(C[C@@H](C)O)S(=O)(=O)c2ccc([N+](=O)[O-])cc2)cc(OC)c1O	13.1	–
C[C@H](O)CN(C[C@@H](O)[C@H](Cc1ccccc1)NC(=O)c1ccc(O)c(O)c1)S(=O)(=O)c1ccc(C(F)(F)F)cc1	6.53	–
C[C@H](O)CN(C[C@@H](O)[C@H](Cc1ccccc1)NC(=O)c1ccc(O)c(O)c1)S(=O)(=O)c1ccc([N+](=O)[O-])cc1	6.56	–
COc1cc(C(=O)N[C@@H](Cc2ccccc2)[C@H](O)CN(C[C@H](C)O)S(=O)(=O)c2ccc([N+](=O)[O-])cc2)cc(OC)c1O	75.8	–
COc1cc(O)c(C(=O)N[C@@H](Cc2ccccc2)[C@H](O)CN(C[C@H](C)O)S(=O)(=O)c2ccc(C(F)(F)F)cc2)cc1OC	284	–
COc1ccc(C(=O)N[C@@H](Cc2ccccc2)[C@H](O)CN(C[C@@H](C)O)S(=O)(=O)c2ccc(C(F)(F)F)cc2)c(O)c1	427	–
COc1cc(C(=O)N[C@@H](Cc2ccccc2)[C@H](O)CN(C[C@H](C)O)S(=O)(=O)c2ccc(C(F)(F)F)cc2)cc(OC)c1O	14	–
C[C@@H](O)CN(C[C@@H](O)[C@H](Cc1ccccc1)NC(=O)c1ccccc1O)S(=O)(=O)c1ccc([N+](=O)[O-])cc1	9	–
COc1cc(O)c(C(=O)N[C@@H](Cc2ccccc2)[C@H](O)CN(C[C@@H](C)O)S(=O)(=O)c2ccc(C(F)(F)F)cc2)cc1OC	61.4	–
COc1ccc(C(=O)N[C@@H](Cc2ccccc2)[C@H](O)CN(C[C@H](C)O)S(=O)(=O)c2ccc(C(F)(F)F)cc2)c(O)c1	187	–
C[C@@H](O)CN(C[C@@H](O)[C@H](Cc1ccccc1)NC(=O)c1ccc(O)c(O)c1)S(=O)(=O)c1ccc([N+](=O)[O-])cc1	10.3	–
COc1cc(C(=O)N[C@@H](Cc2ccccc2)[C@H](O)CN(C[C@@H](C)O)S(=O)(=O)c2ccc(C(F)(F)F)cc2)cc(OC)c1O	11.8	–
